One series is described as follows: MTT assay in H1299 cells. It counts as cell-based. Particulars: human, H1299 cells (H1299/PhTERT-driven SEAP reporter system), H1299, read-out: MTT (Inhibition μM ± SD); for viability at 24 h, 1 µM: compound concentration 1 μM; for viability at 24 h, 10 µM: compound concentration 10 μM; for viability at 24 h, 100 µM: compound concentration 100 μM. The procedure: H1299 is a non-small cell lung cancer cell line with telomerase activity. The cell extract of H1299 cell lines can be used for selecting the telomerase activity inhibitors in vitro and the telomerase activity-inhibited substances in vivo. H1299 cell line was incubated with RPMI 1640 medium supplemented with 10% of fetal bovine serum (FBS). A total of 2×10^3 […] cells were seeded in the 96-well cell culture plate, and incubated with DMEM (GIBCO®)/glucose mixture and Medium 199 (GIBCO®)/10% FBS/1 mM sodium pyruvate (GIBCO®)/4 mM L-glutamine (GIBCO®) mixture at a ratio of 4:1 at 37° C. for 24 hours. […] After 48 hours of drug treatment, the cultured medium were collected for performing the analysis of SEAP activity. The cells were washed with 1×PBS once immediately, and the MTT assay was performed to compare the compounds with the relative toxicity or the influence to the proliferation and activity. Mitochondria is the place for cellular respiration, and there are many reductive reactions catalyzed by dehydrogenases. MTT is a water-soluble yellow compound, and the […] will be formed after reduction. This crystal can be dissolved in the organic solvent, and has high absorbance at the wavelength of 570 nm. The higher cellular activity or more cell numbers, the more generated crystal violets. Therefore, the cellular activity and cell number can be obtained by the MTT assay. MTT solution was prepared by dissolving MTT powder in PBS solution to achieve 5 mg/ml, filtrated and stored at 4° C. Lysis buffer contained 20% (w/v) of SDS in 50% of N,N-dimethylformamide (DMF, Riedel-deHaën). After the cells were incubated in the 96-well culture plate, the original medium was discarded, 100 μl of the fresh serum-free medium per well and 25 μl of MTT solution per well were added in respectively, and the cells were further incubated in the CO2 incubator at 37° C. for 4 hours. Then, 100 μl of lysis buffer per well was added in and incubated overnight in the CO2 incubator at 37° C. The absorbance at 570 nm was determined by the ELISA reader. The selection of telomerase inhibitors of the anthraquinone compounds provided in the present invention was performed by the […]-driven SEAP system. SEAP is the communication gene in this drug selection model. The SEAP inhibition was shown as follows. […] Subsequently, the linear slope of absorbance to the measuring time was calculated, and the variance of absorbance at 405 nm per minute was represented and compared with the SEAP-producing result of drug-untreated H1299 cells. In addition, the influence of the cell-treated drug solution to the cellular proliferation and the drug toxicity to the cells were considered, and the cellular growth was evaluated by the MTT assay. The drug-treated cells were analyzed by the SEAP assay and the data analysis of MTT assay at the same time. Both results were compared so as to delete the influence of cell number or the activity to SEAP, and the dose-dependent phenomenon could be anticipated in the range of drug concentration designed by the laboratory. […] Since the chemically-synthetic drugs have colors thereon, the SEAP value of drug-treatment without cells was also determined to be the background value which was deducted while treating with the drugs. The candidate drug for inhibiting telomerase on the hTERT gene expression level was evaluated and anticipated.
For orientation: Tetrazolium dyes change colour on reduction, which living cells bring about.

The next series in a line: MTT assay in BJ1 cells. It is filed as cell-based. The note with it: human, hTERT-BJ1-PTERT(3.4)-SEAP cells, BJ1, read-out: MTT (Inhibition μM ± SD); for viability at 48 h, 1 µM: compound concentration 1 μM; for viability at 48 h, 10 µM: compound concentration 10 μM; for viability at 48 h, 100 µM: compound concentration 100 μM. How it is done:
A total of 2×10^3 […] cells were seeded in the 96-well cell culture plate, and incubated with DMEM (GIBCO®)/glucose mixture and Medium 199 (GIBCO®)/10% FBS/1 mM sodium pyruvate (GIBCO®)/4 mM L-glutamine (GIBCO®) mixture at a ratio of 4:1 at 37° C. for 24 hours. […] After 48 hours of drug treatment, the cultured medium were collected for performing the analysis of SEAP activity. The cells were washed with 1×PBS once immediately, and the MTT assay was performed to compare the compounds with the relative toxicity or the influence to the proliferation and activity. Mitochondria is the place for cellular respiration, and there are many reductive reactions catalyzed by dehydrogenases. MTT is a water-soluble yellow compound, and the […] will be formed after reduction. This crystal can be dissolved in the organic solvent, and has high absorbance at the wavelength of 570 nm. The higher cellular activity or more cell numbers, the more generated crystal violets. Therefore, the cellular activity and cell number can be obtained by the MTT assay. MTT solution was prepared by dissolving MTT powder in PBS solution to achieve 5 mg/ml, filtrated and stored at 4° C. Lysis buffer contained 20% (w/v) of SDS in 50% of N,N-dimethylformamide (DMF, Riedel-deHaën). After the cells were incubated in the 96-well culture plate, the original medium was discarded, 100 μl of the fresh serum-free medium per well and 25 μl of MTT solution per well were added in respectively, and the cells were further incubated in the CO2 incubator at 37° C. for 4 hours. Then, 100 μl of lysis buffer per well was added in and incubated overnight in the CO2 incubator at 37° C. The absorbance at 570 nm was determined by the ELISA reader.

In the next series the test system is hTERT expression. The experiment in a line: SEAP assay in hTERT-BJ1-PTERT(3.4)-SEAP cells. The note with it: Homo sapiens, read-out: SEAP (Inhibition μM ± SD). It counts as cell-based. The procedure: A total of 2×10^3 hTERT-BJ1-PTERT(3.4)-SEAP cells were seeded in the 96-well cell culture plate, and incubated with DMEM (GIBCO®)/glucose mixture and Medium 199 (GIBCO®)/10% FBS/1 mM sodium pyruvate (GIBCO®)/4 mM L-glutamine (GIBCO®) mixture at a ratio of 4:1 at 37° C. for 24 hours. When the cells were attached in the bottom of the well, the seriously-diluted compounds with different concentrations ([…]) were treated with the cells for 48 hours, and the PTERT(3.4)-SEAP cells without drug treatment were being the control. After 48 hours of drug treatment, the cultured medium were collected for performing the analysis of SEAP activity. The cells were washed with 1×PBS once immediately, and the MTT assay was performed to compare the compounds with the relative toxicity or the influence to the proliferation and activity.
The cellular medium after the cellular incubation was transferred into the eppondorf tube, and the activity of endogeneous alkaline phosphatase was inactivated at 65° C. for 10 minutes. After centrification, the mixture was obtained by mixing 50 μl of the supernatant with the equal volume of the SEAP buffer. The mixture and the substrate (120 mM of p-nitrophenylphosphate) were preheated at 37° C. for 10 minutes respectively, and the mixture and the substrate were mixed at a ratio of 1:10 and reacted at 37° C. The absorbance of visible light at 405 nm was determined at the appropriate time intervals, and the enzymatic activity of SEAP was represented by the speed of the increasing absorbance at 405 nm.

Where [1] appears, read: BJ1, compound concentration 10 μM.
[2] abbreviates: BJ1, compound concentration 100 μM.

Where two headings read alike, the source gives them in different places.

A word on the melting point: it is the temperature of the solid-liquid transition. `O=C1c2ccc(NC(=O)C3CC3)cc2C(=O)c2cc(NC(=O)C3CC3)ccc21` [Compound 32, 2,7-Bis(cyclopropanecarbonamido)anthraquinone] displayed a melting point of 352 °C. In addition, in “MTT assay in H1299 cells”, the viability at 24 h, 1 µM is 46 ± 14%; the viability at 24 h, 10 µM came out at 36 ± 13%; the viability at 24 h, 100 µM was determined as 43 ± 15%. In “MTT assay in BJ1 cells”, the viability at 48 h, 1 µM worked out at 60 ± 6%; the viability at 48 h, 10 µM was determined as 44 ± 10%; the viability at 48 h, 100 µM was 47 ± 2%.

As for `CCCNCCC(=O)Nc1ccc2c(c1)C(=O)c1cc(NC(=O)CCNCCC)ccc1C2=O` [Compound 21, 2,7-Bis[3-(propylamino)propionamido]anthraquinone], in the series “MTT assay in H1299 cells”, the viability at 24 h, 1 µM was 80 ± 15%; the viability at 24 h, 10 µM was determined as 50 ± 6%; the viability at 24 h, 100 µM was 13 ± 10%. Also, in “MTT assay in BJ1 cells”, the viability at 48 h, 1 µM was 75 ± 1%; the viability at 48 h, 10 µM was found to be 65 ± 2%; the viability at 48 h, 100 µM was found to be 38 ± 2%. In addition, the activity at 10 µM in the series on hTERT expression (setting [1]) was 133 ± 48%. Further, in the series on hTERT expression (setting [2]), the activity at 100 µM came out at 217 ± 40%.

As to `O=C(CCN1CCCC1)Nc1ccc2c(c1)C(=O)c1cc(NC(=O)CCN3CCCC3)ccc1C2=O` [Compound 18, 2,7-Bis[3-(pyrrolidino)propionamido]anthraquinone], in “MTT assay in H1299 cells”, the viability at 24 h, 1 µM amounted to 87 ± 15%; the viability at 24 h, 10 µM amounted to 54 ± 7%; the viability at 24 h, 100 µM was 12 ± 10%. Besides, in the series “MTT assay in BJ1 cells”, the viability at 48 h, 1 µM worked out at 82 ± 4%; the viability at 48 h, 10 µM was 68%; the viability at 48 h, 100 µM stood at 39%. The activity at 10 µM with hTERT expression (setting [1]) was 67 ± 16%. Besides, the activity at 100 µM with hTERT expression (setting [2]) stood at 109 ± 18%.

Regarding `CCN(CC)CCC(=O)Nc1ccc2c(c1)C(=O)c1cc(NC(=O)CCN(CC)CC)ccc1C2=O` [Compound 16, 2,7-Bis[3-(diethylamino)propionamido]anthraquinone], in “MTT assay in H1299 cells”, the viability at 24 h, 1 µM came out at 106 ± 15%; the viability at 24 h, 10 µM stood at 41 ± 20%; the viability at 24 h, 100 µM was found to be 1 ± 1%. Also, in the series “MTT assay in BJ1 cells”, the viability at 48 h, 1 µM stood at 103 ± 2%; the viability at 48 h, 10 µM was 55 ± 3%; the viability at 48 h, 100 µM was 36 ± 1%. The activity at 1 µM in the series with hTERT expression (BJ1, compound concentration 1 μM) was 84 ± 5%. Besides, the activity at 10 µM in the series with hTERT expression (setting [1]) was 49 ± 3%. Moreover, in the series with hTERT expression (setting [2]), the activity at 100 µM was 37 ± 5%.

Consider `CCCC(=O)Nc1ccc2c(c1)C(=O)c1cc(NC(=O)CCC)ccc1C2=O` [Compound 28, 2,7-Bis(butyramido)anthraquinone], for which the melting point was 275 °C. Besides, in “MTT assay in H1299 cells”, the viability at 24 h, 1 µM turned out to be 93 ± 14%; the viability at 24 h, 10 µM turned out to be 59 ± 13%; the viability at 24 h, 100 µM is 40 ± 15%. Also, in the series “MTT assay in BJ1 cells”, the viability at 48 h, 1 µM came out at 84 ± 2%; the viability at 48 h, 10 µM came out at 51 ± 8%; the viability at 48 h, 100 µM came to 50 ± 6%.

In the case of `O=C(CCCl)Nc1ccc2c(c1)C(=O)c1cc(NC(=O)CCCl)ccc1C2=O` [Compound 15, 2,7-Bis(3-chloropropionamido)anthraquinone], the melting point was determined as 281 °C. Also, in “MTT assay in H1299 cells”, the viability at 24 h, 1 µM was 77 ± 13%; the viability at 24 h, 10 µM turned out to be 44 ± 15%; the viability at 24 h, 100 µM was 29 ± 11%. Moreover, in “MTT assay in BJ1 cells”, the viability at 48 h, 1 µM worked out at 77 ± 2%; the viability at 48 h, 10 µM was 65 ± 1%; the viability at 48 h, 100 µM worked out at 39 ± 1%.

`Nc1ccc2c(c1)C(=O)c1cc(N)ccc1C2=O` [Compound 2, 2,7-Diaminoanthraquinone] displayed a melting point of 342 °C. Further, in “MTT assay in H1299 cells”, the viability at 24 h, 1 µM was 90 ± 17%; the viability at 24 h, 10 µM was found to be 80 ± 16%; the viability at 24 h, 100 µM was determined as 65 ± 10%. In the series “MTT assay in BJ1 cells”, the viability at 48 h, 1 µM was determined as 95 ± 2%; the viability at 48 h, 10 µM came to 83 ± 1%; the viability at 48 h, 100 µM amounted to 80 ± 2%.

Consider `O=C(CN1CCCC1)Nc1ccc2c(c1)C(=O)c1cc(NC(=O)CN3CCCC3)ccc1C2=O` [Compound 6, 2,7-Bis[2-(pyrrolidino)acetamido]anthraquinone], for which the melting point turned out to be 201 °C. Further, in “MTT assay in H1299 cells”, the viability at 24 h, 1 µM is 99 ± 9%; the viability at 24 h, 10 µM worked out at 52 ± 13%; the viability at 24 h, 100 µM came to 23 ± 14%. In “MTT assay in BJ1 cells”, the viability at 48 h, 1 µM came to 99 ± 2%; the viability at 48 h, 10 µM worked out at 60 ± 2%; the viability at 48 h, 100 µM came to 39 ± 1%.

On to `CN(C)CC(=O)Nc1ccc2c(c1)C(=O)c1cc(NC(=O)CN(C)C)ccc1C2=O` [Compound 8, 2,7-Bis[2-(dimethylamino)acetamido]anthraquinone], for which, in the series “MTT assay in H1299 cells”, the viability at 24 h, 1 µM is 92 ± 13%; the viability at 24 h, 10 µM came out at 55 ± 9%; the viability at 24 h, 100 µM turned out to be 15 ± 12%. Further, in the series “MTT assay in BJ1 cells”, the viability at 48 h, 1 µM stood at 96 ± 3%; the viability at 48 h, 10 µM is 45 ± 1%; the viability at 48 h, 100 µM amounted to 39 ± 1%. In addition, in the series on hTERT expression, the activity at 1 µM is 96 ± 1%, the activity at 10 µM was 44 ± 5% and the activity at 100 µM worked out at 3 ± 13%.

(Values after patent publication US20090253709A1 (NATIONAL DEFENSE MEDICAL CENTER, priority 2008, published 2009).)
